What was measured:
Type in all cases: in vivo, human
college baseball players [1] = experiment: Fixed and variable position reaction time (FRT/VRT); conditions: 20 mg/Z/day for 3-months
Experimental: (§1) Subjects: Seven college baseball players (M=20.3±0.58 years), supplemented with 20 mg/Z/day for 3-months, participated in this study. The visual function parameters MPOD, disability glare, photostress recovery time, and contrast enhancement were determined. The neural efficiency parameters Fixed Reaction Time (FRT); Variable Reaction Time (VRT); and Coincidence Anticipation Timing (CAT) were determined.
• Task: button press in response to LED repeatedly presented at same position (FRT) or random location (VFT) along the 120 LED linear track. • 60 trials; inter-trial intervals varied between 1000-3000 ms

college baseball players [2] = experiment: Glare disability (GL); conditions: 20 mg/Z/day for 3-months
Experimental: as §1
(§2) Stimuli presented in three-channel Maxwellian-view optical system (1 kW xenon-arc light source).
(§3) • 570 nm target (100% contrast, 5 cycles per degree—cpd); 10° inner, 12° outer diameter annulus comprised of broad-band xenon light (see FIG. 1 a). • Threshold: intensity of annulus required to completely veil target.

college baseball players [3] = experiment: Photostress recovery time (PR); conditions: 20 mg/Z/day for 3-months; supplemented subjects
Experimental: as §1, §2
• 570 nm target (100% contrast; 5 cpd). • 5 second exposure to bleaching photostressor (5° diameter disk; xenon-white light of log 2.5 μW/cm2 intensity). • Threshold: time to recover visibility of target.

college baseball players [4] = experiment: Coincidence anticipation timing (CAT); conditions: 20 mg/Z/day for 3-months; at the highest frequency
Experimental: as §1
• Task: button press to indicate when a light bar (traveling along 120 LED linear track) reached a specified point. • Velocity randomly varied between 5, 10, 15, and 20 MPH (15 trials for each speed, randomly presented; inter-trial intervals randomly varied between 1000-3000 ms).

college baseball players [5] = experiment: Contrast enhancement (CE); conditions: 20 mg/Z/day for 3-months
Experimental: as §1, §2
(§4) • 600 nm target (100% contrast grating, 5 cpd); 460 nm surround (see FIG. 1A(b)). • Threshold: intensity of background required to obscure edge between target and surround.

college baseball players [6] = experiment: Macular pigment optical density (MPOD) by customized heterochromatic flicker photometry, zeaxanthin supplementation study; conditions: for MPOD (Example 2, preliminary data): 20 mg/d supplementation ongoing
Experimental: as §1
• Customized HFP [3]—Macular Metrics Corp., Providence, R.I.,

college baseball players [7] = experiment: Static and dynamic visual performance after zeaxanthin supplementation (Example 2); conditions: 20 mg/d supplementation ongoing; preliminary data
Description: Baseball performance requires the ability to perceive and react to temporally varying stimuli under lighting conditions that are known to be most detrimental to visual function (i.e., short-wave light). Macular pigment (MP) lutein (L) and zeaxanthin (Z) in the retina—is known to improve performance under such conditions and may also improve neural efficiency. The purpose of this study was to assess static and dynamic visual performance in college baseball players in order to: • a) Define performance ability in athletes and non-athletes matched for age and MP (N=18); and, • b) Improve athletes' performance via supplementation.
as §2, §3, §4
• 570 nm target (100% contrast; 5 cpd). • 5 second exposure to bleaching photostressor (5° diameter disk; xenon-white light of log 2.5 μW/cm2 intensity). • Threshold: time to recover visibility of target. […]

CC1=C(/C=C/C(C)=C/C=C/C(C)=C/C=C/C=C(C)/C=C/C=C(C)/C=C/C2=C(C)C[C@@H](O)CC2(C)C)C(C)(C)C[C@H](O)C1 [Zeaxanthin, zeaxanthin]
FRT (college baseball players [1]): improved | VRT (college baseball players [1]): improved | Glare (disability glare) (college baseball players [2]): Early improvements | Photostress recovery time (college baseball players [3]): decreased | CAT accuracy (college baseball players [4]): improved | Contrast enhancement (college baseball players [5]): Early improvements | MPOD in supplemented subjects (college baseball players [6]; 20 mg/Z/day for 3-months, three subjects completed): increased | MPOD (Example 2, preliminary data) (college baseball players [6]): increases | MPOD (Example 2, preliminary data) (college baseball players [6]; listed as zeaxanthin): Increases | 12-week MPOD (college baseball players [6]; one subject, baseline MPOD 0.7 at 30-min of eccentricity, 20 mg/d, 12 weeks): 0.77 | Dynamic visual performance (college baseball players [7]): improvement | Static visual performance (college baseball players [7]): improvement

Source: patent publication US20170367996A1, “Use Of Xanthophyll Carotenoids To Improve Visual Performance And Neural Efficiency” (University of Georgia Research Foundation, Inc., priority 2011, published 2017)
